Read-outs that look alike come from different tables or passages of the source. Blank lines part the entries; values can stand above or below the molecule they belong to.
Tests used:
A2BAR [1] = target: T1, A2BAR (Homo sapiens, UniProt P29275); experiment: cAMP accumulation in T24 cells endogenously expressing the A2BAR; settings: for Emax: T-24, read-out: Max effect cAMP (% of effect of NECA)
T1 sequence (P29275 1-332): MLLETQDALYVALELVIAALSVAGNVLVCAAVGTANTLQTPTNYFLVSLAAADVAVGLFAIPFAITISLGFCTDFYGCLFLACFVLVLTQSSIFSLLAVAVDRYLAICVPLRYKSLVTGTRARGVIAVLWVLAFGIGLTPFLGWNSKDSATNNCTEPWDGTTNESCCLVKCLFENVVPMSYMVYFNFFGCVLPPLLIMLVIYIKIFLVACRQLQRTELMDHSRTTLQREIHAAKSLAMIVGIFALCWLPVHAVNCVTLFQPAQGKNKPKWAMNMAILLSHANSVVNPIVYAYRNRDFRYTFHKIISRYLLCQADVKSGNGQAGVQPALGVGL

A2BAR [2] = target: T1, A2BAR; experiment: cAMP accumulation in HEK293 cells overexpressing the A2BAR; settings: for Emax: HEK293, read-out: Max effect cAMP (% of effect of NECA); for τ: operational model, A2BAR-overexpressing HEK293
A2BAR [3] = target: T1, A2BAR; experiment: cAMP accumulation in HEK293 cells endogenously expressing the A2BAR; settings: for Emax: HEK293, read-out: Max effect cAMP (% of effect of NECA)
A2BAR [4] = target: T1, A2BAR; experiment: ERK1/2 phosphorylation in T24 cells; settings: for Emax: T-24, read-out: Max effect ERK1/2 (% of effect of NECA)
A2BAR [5] = target: T1, A2BAR; experiment: ERK1/2 phosphorylation in HEK293 cells; settings: for Emax: HEK293, read-out: Max effect ERK1/2 (% of effect of NECA)
A2BAR [6] = target: T1, A2BAR; experiment: Intracellular calcium mobilization in T24 cells; settings: for Emax: T-24, read-out: Max effect Calcium (% of effect of NECA)
A2BAR [7] = target: T1, A2BAR; experiment: ERK1/2 phosphorylation in HEK293 cells overexpressing the A2BAR; settings: for log (τ/KA) / τ / Δlog (τ/Ka): ERK1/2 pathway; for τ: operational model, A2BAR-overexpressing HEK293; for Δlog (τ/Ka): relative to NECA; for ΔΔlog (τ/KA): ERK1/2 versus cAMP reference pathway; for Bias: ERK1/2 versus cAMP, bias ≫1 disfavors the pathway; for Emax: HEK293, read-out: Max effect ERK1/2 (% of effect of NECA)
mouse A2BAR [8] = target: T2, mouse A2BAR (Mus musculus, UniProt Q60614); experiment: β-Arrestin2 translocation in PathHunter CHO cells; settings: for Emax: CHO, read-out: Max effect β-arrestin (% of effect of NECA); for log (τ/KA) / τ / Δlog (τ/Ka): β-Arrestin pathway; for τ: operational model, CHO mouse A2BAR; for Δlog (τ/Ka): relative to NECA; for Max effect β-arrestin (% of effect of NECA): PathHunter CHO cells, mouse A2BAR
T2 sequence (Q60614 1-332): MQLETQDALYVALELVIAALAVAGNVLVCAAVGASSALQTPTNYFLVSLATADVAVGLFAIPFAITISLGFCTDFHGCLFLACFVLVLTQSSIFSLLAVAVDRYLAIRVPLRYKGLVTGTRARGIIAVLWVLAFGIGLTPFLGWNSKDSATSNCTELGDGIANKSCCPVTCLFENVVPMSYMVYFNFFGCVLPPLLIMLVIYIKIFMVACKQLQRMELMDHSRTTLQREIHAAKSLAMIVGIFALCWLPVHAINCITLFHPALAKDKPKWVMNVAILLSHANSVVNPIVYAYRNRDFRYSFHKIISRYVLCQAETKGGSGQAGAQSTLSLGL

mouse A2BAR [9] = experiment: β-Arrestin2 translocation in PathHunter CHO cells; settings: for ΔΔlog (τ/KA): β-Arrestin versus cAMP reference pathway; for Bias: β-Arrestin versus cAMP, bias ≫1 disfavors the pathway
A2BAR [10] = experiment: cAMP accumulation in COS-7 cells endogenously expressing the A2BAR; settings: for Max effect cAMP accumulation: NECA = 100; for EC50: read-out: EC50 cAMP accumulation
A2BAR [11] = target: T1, A2BAR; experiment: cAMP accumulation in WM266 melanoma cells endogenously expressing the A2BAR; settings: for Emax: WM266, read-out: Max effect cAMP accumulation
A2BAR [12] = target: T1, A2BAR; experiment: cAMP accumulation in 1321N1 astrocytoma cells endogenously expressing the A2BAR; settings: for Emax: 1321-N1, read-out: Max effect cAMP accumulation
A2BAR [13] = target: T1, A2BAR; settings: for Emax: PC-3, read-out: Max effect cAMP accumulation
A2BAR [14] = target: T1, A2BAR; experiment: Intracellular calcium mobilization in HEK293 cells; settings: HEK293, read-out: Max effect Calcium (% of effect of NECA)
A2BAR [15] = target: T1, A2BAR; experiment: Intracellular calcium mobilization in HEK293 cells overexpressing the A2BAR; settings: for τ: operational model, A2BAR-overexpressing HEK293; for Bias: Calcium versus cAMP, bias ≫1 disfavors the pathway
[16] = tested on: MIN-6 mouse pancreatic β cells; experiment: Insulin release in MIN6 cells; format: cell-based; settings: MIN-6 cells, 16.7 mM glucose, 1 h

Compound: CCNC(=O)[C@H]1O[C@@H](n2cnc3c(N)ncnc32)[C@H](O)[C@@H]1O [NECA, adenosine-5′-N-ethyluronamide]
- Max effect β-arrestin (% of effect of NECA) (mouse A2BAR [8]): 100%
- τ (mouse A2BAR [8]): 38.9
- Bias (mouse A2BAR [9]): 1.00

Compound: CCCn1c(=O)[nH]c2nc(-c3ccc(S(=O)(=O)N4CCN(c5ccc(Cl)cc5)CC4)cc3)[nH]c2c1=O [PSB603]
- Glucose stimulated insulin secretion [16]: induced insulin secretion

Compound: C[C@H](Cc1ccccc1)Nc1ncnc2c1ncn2[C@@H]1O[C@H](CO)[C@@H](O)[C@H]1O [R-PIA, R-N^6-(phenylisopropyl)adenosine]
- Max effect β-arrestin (% of effect of NECA) (mouse A2BAR [8]): 13.2 ±1.1%

Continued, in another order:

- EC50 (A2BAR [1]): 2160 ± 350 nM
Compound: Nc1nc(OCCc2c[nH]c3ccccc23)nc2c1ncn2[C@@H]1O[C@H](CO)[C@@H](O)[C@H]1O [MRS3534, 2-(2-(indol-3-yl)ethyloxy)adenosine]

- EC50 (A2BAR [2]): 62.9 ± 7.6 nM
- Kd (A2BAR [2]): 6700 nM
- Emax (A2BAR [2]): 102 ± 6.6%
- log (τ/KA) (A2BAR [2]; cAMP pathway): 6.83 ± 0.45
- τ (A2BAR [2]; cAMP pathway): 45.1
- EC50 (A2BAR [1]): 745 ± 225 nM
- Emax (A2BAR [1]): 94.9 ± 2.2%
- EC50 (A2BAR [3]): 1020 ± 250 nM
- Emax (A2BAR [3]): 96.2 ± 24.3%
- ERK1/2 stimulation (A2BAR [4]; T24 cells): did not produce any stimulation
- Emax (A2BAR [4]): -8.2 ± 7.6%
- EC50 (A2BAR [5]): 166 ± 32 nM
- Emax (A2BAR [5]): 42.3 ± 9.4%
- Emax (A2BAR [6]): -2.7 ± 3.2%
- EC50 (A2BAR [7]): 203 ± 48 nM
- Kd (A2BAR [7]): 362 nM
- log (τ/KA) (A2BAR [7]): 6.08 ± 0.89
- τ (A2BAR [7]): 0.44
- Δlog (τ/Ka) (A2BAR [7]): 0.45 ± 0.03
- ΔΔlog (τ/KA) (A2BAR [7]): 0.14
- Bias (A2BAR [7]): 1.38
- Emax (A2BAR [7]): 29.7 ± 2.6%
- Kd (mouse A2BAR [8]): 18100 nM
- Emax (mouse A2BAR [8]): 28.1 ± 3.5%
- log (τ/KA) (mouse A2BAR [8]): 4.17 ± 0.23
- τ (mouse A2BAR [8]): 0.27
- Δlog (τ/Ka) (mouse A2BAR [8]): -1.56 ± 0.18
- EC50 (A2BAR [10]): 226 ± 32 nM
- EC50 (A2BAR [11]): 1870 ± 320 nM
- Emax (A2BAR [11]): 96.2 ± 1.8%
- EC50 (A2BAR [12]): 1260 ± 180 nM
- Emax (A2BAR [12]): 98.4 ± 3.1%
- EC50 (A2BAR [13]): 480 ± 32 nM
- Emax (A2BAR [13]): 98.2 ± 7.7%
- Emax (A2BAR [14]): 1.6 ± 2.2%
- Kd (A2BAR [15]): 7100 nM
- log (τ/KA) (A2BAR [15]; Calcium pathway): 3.35 ± 0.44
- τ (A2BAR [15]; Calcium pathway): 0.02
- ΔΔlog (τ/KA) (A2BAR [15]; Calcium versus cAMP reference pathway): 4.06
- Bias (A2BAR [15]): 11500
Compound: Nc1nc(OCCc2c[nH]c3cc(Br)ccc23)nc2c1ncn2[C@@H]1O[C@H](CO)[C@@H](O)[C@H]1O [MRS3997, 2-(2-(6-bromo-indol-3-yl)ethyloxy)adenosine]
- ΔΔlog (τ/KA) (mouse A2BAR [9]): 2.15
- Bias (mouse A2BAR [9]): 141
- Max effect cAMP accumulation (A2BAR [10]): 100±6%

- EC50 (A2BAR [2]): 25.3 ± 7.8 nM
- Kd (A2BAR [2]): 7760 nM
- Emax (A2BAR [2]): 93.2 ± 4.5%
- log (τ/KA) (A2BAR [2]; cAMP pathway): 7.17 ± 0.68
- τ (A2BAR [2]; cAMP pathway): 116
- Δlog (τ/Ka) (A2BAR [2]; cAMP pathway, relative to NECA): -0.25 ± 0.02
- EC50 (A2BAR [1]): 899 ± 226 nM
- Emax (A2BAR [1]): 77.7 ± 3.3%
- EC50 (A2BAR [3]): 1130 ± 340 nM
- Emax (A2BAR [3]): 68.7 ± 11.1%
- ERK1/2 phosphorylation, increase above basal value (A2BAR [4]; T24 cells, 10 μM): ~13%
- Emax (A2BAR [4]): 13.1 ± 4.5%
- EC50 (A2BAR [5]): 1530 ± 340 nM
- Emax (A2BAR [5]): 46.1 ± 9.2%
- EC50 (A2BAR [6]): 6170 ± 1990 nM
- Emax (A2BAR [6]): 36.9 ± 8.6%
- EC50 (A2BAR [7]): 2680 ± 460 nM
- Kd (A2BAR [7]): 5260 nM
- log (τ/KA) (A2BAR [7]): 5.11 ± 0.52
- τ (A2BAR [7]): 0.68
- Δlog (τ/Ka) (A2BAR [7]): -0.52 ± 0.04
- ΔΔlog (τ/KA) (A2BAR [7]): 0.27
- Bias (A2BAR [7]): 1.86
- Emax (A2BAR [7]): 36.3 ± 5.2%
- EC50 (mouse A2BAR [8]): 48100 nM
- Kd (mouse A2BAR [8]): 83400 nM
- Emax (mouse A2BAR [8]): 40.9 ± 2.9%
- log (τ/KA) (mouse A2BAR [8]): 4.10 ± 0.22
- τ (mouse A2BAR [8]): 1.04
- Δlog (τ/Ka) (mouse A2BAR [8]): -1.63 ± 0.20
- EC50 (A2BAR [10]): 418 ± 22 nM
- EC50 (A2BAR [11]): 1270 ± 220 nM
- Emax (A2BAR [11]): 48.3 ± 4.9%
- EC50 (A2BAR [12]): 1010 ± 180 nM
- Emax (A2BAR [12]): 89.8 ± 9.2%
- EC50 (A2BAR [13]): 321 ± 66 nM
- Emax (A2BAR [13]): 89.4 ± 2.6%
- Emax (A2BAR [14]): 7.1 ± 3.2%
- EC50 (A2BAR [15]): 7150 ± 2360 nM
- Kd (A2BAR [15]): 84700 nM
- log (τ/KA) (A2BAR [15]; Calcium pathway): 3.84 ± 0.19
- τ (A2BAR [15]; Calcium pathway): 0.59
- Δlog (τ/Ka) (A2BAR [15]; Calcium pathway, relative to NECA): -1.20 ± 0.13
- Bias (A2BAR [15]): 85
Compound: OC[C@H]1O[C@@H](n2cnc3c(Nc4ccc(I)cc4)ncnc32)[C@H](O)[C@@H]1O [MRS5911, N^6-(4-iodophenyl)adenosine]
- ΔΔlog (τ/KA) (mouse A2BAR [9]): 1.38
- Bias (mouse A2BAR [9]): 24
- Max effect cAMP accumulation (A2BAR [10]): 99.3±2.1%

— publication PMC4128710 (Biochemical pharmacology, 2014)
